In series [1] the test system is Rattus norvegicus. The experiment in a line: Total electrolytic excretion of chlorine in urine of rats after peroral administration of 19.5 uM/Kg of drug. The conditions noted are these: in vivo, po. It counts as ADME, organism-based.
Series [2] has as its system Rattus norvegicus. The experiment in a line: Ratio of Total electrolytic excretion of sodium and potassium in urine of rats after peroral administration of 195 uM/Kg of drug. It counts as ADME, organism-based. The note with it: in vivo, po.
For series [3], the system named is Rattus norvegicus. Nature of the series: Ratio of Total electrolytic excretion of sodium and potassium in urine of rats after intravenous administration of 5.84 uM/Kg of drug. It is filed as ADME, organism-based. The conditions noted are these: in vivo.
The test system of series [4] is Rattus norvegicus. Nature of the series: Ratio of Total electrolytic excretion of sodium and potassium in urine of rats after peroral administration of 58.4 uM/Kg of drug. It counts as ADME, organism-based. The conditions noted are these: in vivo, po.
In series [5] the test system is Rattus norvegicus. The experiment in a line: Tested for the diuretic activity by measuring the urinary volume after peroral administering 19.5 uM/Kg of drug in rats. It is filed as ADME, organism-based, Urine. The conditions noted are these: in vivo, po.
Series [6] has as its system Rattus norvegicus. The experiment in a line: Total electrolytic excretion of sodium in urine of rats after peroral administration of 58.4 uM/Kg of drug. It is filed as ADME, organism-based. The conditions noted are these: in vivo, po.
Series [7] concerns Rattus norvegicus. Nature of the series: Total electrolytic excretion of potassium in urine of rats after peroral administration of 19.5 uM/Kg of drug. It is filed as ADME, organism-based. The note with it: in vivo, po.
For series [8], the system named is Rattus norvegicus. The experiment in a line: Total electrolytic excretion of sodium in urine of rats after peroral administration of 195 uM/Kg of drug. It counts as ADME, organism-based. The note with it: in vivo, po.
For series [9], the system named is Rattus norvegicus. The experiment in a line: Tested for the diuretic activity by measuring the urinary volume after peroral administering 58.4 uM/Kg of drug in rats. It is filed as ADME, organism-based, Urine. The note with it: in vivo, po.
The subject of series [10] is Rattus norvegicus. Nature of the series: Tested for the diuretic activity by measuring the urinary volume after peroral administering 195 uM/Kg of drug in rats. It is filed as ADME, organism-based, Urine. The conditions noted are these: in vivo, po.
Series [11] concerns Rattus norvegicus. The experiment in a line: Total electrolytic excretion of chlorine in urine of rats after peroral administration of 195 uM/Kg of drug. It is filed as ADME, organism-based. The note with it: in vivo, po.
Series [12] concerns Rattus norvegicus. Nature of the series: Total electrolytic excretion of sodium in urine of rats after peroral administration of 19.5 uM/Kg of drug. It is filed as ADME, organism-based. The note with it: in vivo, po.
In series [13] the test system is Rattus norvegicus. The experiment in a line: Total electrolytic excretion of potassium in urine of rats after peroral administration of 58.4 uM/Kg of drug. It is filed as ADME, organism-based. The conditions noted are these: in vivo, po.
Series [14] has as its system Rattus norvegicus. Nature of the series: Ratio of Total electrolytic excretion of sodium and potassium in urine of rats after peroral administration of 19.5 uM/Kg of drug. It counts as ADME, organism-based. The conditions noted are these: in vivo, po.
Series [15] concerns Rattus norvegicus. The experiment in a line: Ratio of Total electrolytic excretion of sodium and potassium in urine of rats after intravenous administration of 19.5 uM/Kg of drug. It counts as ADME, organism-based. The note with it: in vivo.
For series [16], the system named is Rattus norvegicus. The experiment in a line: Total electrolytic excretion of chlorine in urine of rats after peroral administration of 58.4 uM/Kg of drug. It is filed as ADME, organism-based. The note with it: in vivo, po.
Series [17] deals with Rattus norvegicus. Nature of the series: Total electrolytic excretion of potassium in urine of rats after peroral administration of 195 uM/Kg of drug. It is filed as ADME, organism-based. The note with it: in vivo, po.
Series [18] deals with Rattus norvegicus. Nature of the series: Total electrolytic excretion of chlorine in urine of rats after peroral administration of 77.5 uM/Kg of drug. It counts as ADME, organism-based. The conditions noted are these: in vivo, po.
In series [19] the test system is Rattus norvegicus. The experiment in a line: Total electrolytic excretion of potassium in urine of rats after peroral administration of 259 uM/Kg of drug. It is filed as ADME, organism-based. The note with it: in vivo, po.
Series [20] concerns Rattus norvegicus. Nature of the series: Total electrolytic excretion of potassium in urine of rats after peroral administration of 25.9 uM/Kg of drug. The conditions noted are these: in vivo, po. It is filed as ADME, organism-based.
Series [21] has as its system Rattus norvegicus. Nature of the series: Ratio of Total electrolytic excretion of sodium and potassium in urine of rats after peroral administration of 259 uM/Kg of drug. The conditions noted are these: in vivo, po. It is filed as ADME, organism-based.
Series [22] has as its system Rattus norvegicus. The experiment in a line: Tested for the diuretic activity by measuring the urinary volume after peroral administering 259 uM/Kg of drug in rats. It counts as ADME, organism-based, Urine. The note with it: in vivo, po.
In series [23] the test system is Rattus norvegicus. Nature of the series: Ratio of Total electrolytic excretion of sodium and potassium in urine of rats after peroral administration of 77.7 uM/Kg of drug. The note with it: in vivo, po. It is filed as ADME, organism-based.
The test system of series [24] is Rattus norvegicus. The experiment in a line: Total electrolytic excretion of potassium in urine of rats after peroral administration of 77.5 uM/Kg of drug. It counts as ADME, organism-based. The conditions noted are these: in vivo, po.
The subject of series [25] is Rattus norvegicus. The experiment in a line: Tested for the diuretic activity by measuring the urinary volume after peroral administering 25.9 uM/Kg of drug in rats. It counts as ADME, organism-based, Urine. The conditions noted are these: in vivo, po.
Series [26] has as its system Rattus norvegicus. Nature of the series: Total electrolytic excretion of sodium in urine of rats after peroral administration of 25.9 uM/Kg of drug. It counts as ADME, organism-based. The conditions noted are these: in vivo, po.
Series [27] has as its system Rattus norvegicus. The experiment in a line: Total electrolytic excretion of chlorine in urine of rats after peroral administration of 25.9 uM/Kg of drug. It counts as ADME, organism-based. The conditions noted are these: in vivo, po.
Series [28] has as its system Rattus norvegicus. Nature of the series: Ratio of Total electrolytic excretion of sodium and potassium in urine of rats after peroral administration of 25.9 uM/Kg of drug. It is filed as ADME, organism-based. The conditions noted are these: in vivo, po.
Series [29] concerns Rattus norvegicus. The experiment in a line: Tested for the diuretic activity by measuring the urinary volume after peroral administering 77.5 uM/Kg of drug in rats. The note with it: in vivo, po. It is filed as ADME, organism-based, Urine.
The test system of series [30] is Rattus norvegicus. The experiment in a line: Total electrolytic excretion of sodium in urine of rats after peroral administration of 77.5 uM/Kg of drug. It is filed as ADME, organism-based. The note with it: in vivo, po.
For series [31], the system named is Rattus norvegicus. Nature of the series: Total electrolytic excretion of sodium in urine of rats after peroral administration of 259 uM/Kg of drug. It is filed as ADME, organism-based. The conditions noted are these: in vivo, po.
Series [32] has as its system Rattus norvegicus. Nature of the series: Total electrolytic excretion of chlorine in urine of rats after peroral administration of 259 uM/Kg of drug. It is filed as ADME, organism-based. The conditions noted are these: in vivo, po.

As for `C1CN(/C(=N\C23CC4CC(CC(C4)C2)C3)NC23CC4CC(CC(C4)C2)C3)CCO1`, the “Excretion Cl-” value in the series on Rattus norvegicus [1] was 1.52 m equiv; with Rattus norvegicus [11], 1.66 m equiv; with Rattus norvegicus [16] it was 1.97 m equiv. Moreover, the Ratio is 7.6 [Na+]/[K+] in the series with Rattus norvegicus [2]; 8 [Na+]/[K+] in the series with Rattus norvegicus [3]; 7.5 [Na+]/[K+] in the series on Rattus norvegicus [4]; 6.6 [Na+]/[K+] in the series with Rattus norvegicus [14]; 6.8 in the series on Rattus norvegicus [15]. Moreover, the values for the V in the series on Rattus norvegicus [5], in the series on Rattus norvegicus [9] and in the series with Rattus norvegicus [10] were 10.1 mL, 12.8 mL and 10.9 mL, respectively. In addition, the “Excretion Na+” value in the series on Rattus norvegicus [6] came to 2.04 m equiv; with Rattus norvegicus [8], 1.9 m equiv; in the series on Rattus norvegicus [12] it was 1.51 m equiv. Also, the “Excretion K+” value was 0.23 m equiv in the series on Rattus norvegicus [7], 0.27 m equiv in the series on Rattus norvegicus [13] and 0.25 m equiv in the series with Rattus norvegicus [17].

As for `C1CCCC(/N=C(/NC2CCCCCCC2)N2CCOCC2)CCC1`, the “Excretion Cl-” value with Rattus norvegicus [18] is reported as 1.99 m equiv; in the series on Rattus norvegicus [27] it was 1.5 m equiv; in the series on Rattus norvegicus [32] it was 1.05 m equiv. The “Excretion K+” value in the series on Rattus norvegicus [19] was 0.16 m equiv; in the series with Rattus norvegicus [20] it was 0.26 m equiv; in the series with Rattus norvegicus [24] it was 0.27 m equiv. Moreover, the Ratio amounted to 7.5 in the series with Rattus norvegicus [21], 7.1 in the series with Rattus norvegicus [23] and 5.5 in the series on Rattus norvegicus [28]. Also, the V in the series on Rattus norvegicus [22] was 5 mL; with Rattus norvegicus [25] it was 8.7 mL; with Rattus norvegicus [29], 11.8 mL. For the same compound, the figures for the “Excretion Na+” value in the series on Rattus norvegicus [26], in the series on Rattus norvegicus [30] and in the series on Rattus norvegicus [31] were 1.45 m equiv, 1.89 m equiv and 1.17 m equiv, respectively.

The values above are taken from ChEMBL document CHEMBL1127385, “Synthesis and diuretic activity of alkyl- and arylguanidine analogs of N,N'-dicyclohexyl-4-morpholinecarboxamidine in rats and dogs” (J Med Chem, 1994).
